Experimental data published in PubChem BioAssay AID328 (DTP/NCI, 2004).
“And” between values parts separate entries of the source, which are not always exact repeats. Equal entries are not always repeated. Toxic doses and inconclusive results are not listed.

System: BDF1 mice, P388 leukemia ip, median survival T/C
Experiment: NCI In Vivo Anticancer Drug Screen. Data for tumor model P388 Leukemia (intraperitoneal) in B6D2F1 (BDF1) mice
Conditions: endpoint: median survival time, higher = longer survival
Procedure, shortened: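 Steps: implant the tumour, treat one group with compound and another with vehicle, record survival, then divide treated by control.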

[1] = dose: 100.0 mg/kg/injection, schedule: Q01DX009 (ip), vehicle: Klucel (hydroxypropylcellulose) (HPC)
[2] = dose: 200.0 mg/kg/injection, schedule: Q01DX009 (ip), vehicle: Klucel (hydroxypropylcellulose) (HPC)
[3] = dose: 400.0 mg/kg/injection, schedule: Q01DX009 (ip), vehicle: Klucel (hydroxypropylcellulose) (HPC)
[4] = dose: 25.0 mg/kg/injection, schedule: Q01DX009 (ip), vehicle: water
[5] = dose: 50.0 mg/kg/injection, schedule: Q01DX009 (ip), vehicle: water
[6] = dose: 50.0 mg/kg/injection, schedule: Q01DX009 (ip), vehicle: saline with Tween-80
[7] = dose: 100.0 mg/kg/injection, schedule: Q01DX009 (ip), vehicle: saline with Tween-80
[8] = dose: 200.0 mg/kg/injection, schedule: Q01DX009 (ip), vehicle: saline with Tween-80
[9] = dose: 25.0 mg/kg/injection, schedule: Q01DX009 (ip), vehicle: saline with Tween-80
[10] = dose: 50.0 mg/kg/injection, schedule: Q04DX003 (ip), vehicle: saline with Tween-80
[11] = dose: 100.0 mg/kg/injection, schedule: Q04DX003 (ip), vehicle: saline with Tween-80
[12] = dose: 25.0 mg/kg/injection, schedule: Q04DX003 (ip), vehicle: saline with Tween-80
[13] = dose: 100.0 mg/kg/injection, schedule: Q04DX003 (ip), vehicle: Klucel (hydroxypropylcellulose) (HPC)
[14] = dose: 200.0 mg/kg/injection, schedule: Q04DX003 (ip), vehicle: Klucel (hydroxypropylcellulose) (HPC)
[15] = dose: 400.0 mg/kg/injection, schedule: Q04DX003 (ip), vehicle: Klucel (hydroxypropylcellulose) (HPC)

COc1ccc(/C=C2\N=C(c3ccccc3)OC2=O)cc1OC
T/C (dose: 100.0 mg/kg/injection, schedule: Q01DX001 (ip), vehicle: saline): 90 % of control
T/C (dose: 200.0 mg/kg/injection, schedule: Q01DX001 (ip), vehicle: saline): 104 % of control
T/C (dose: 400.0 mg/kg/injection, schedule: Q01DX001 (ip), vehicle: saline): 104 % of control

C=C1C(=O)OC2C=C(C)C3C(O)CC(C)(O)C3CC12 (centres undefined)
T/C [1]: 114 % of control
T/C [2]: 102 % of control

Nc1c(Br)cc(Br)c2ccccc12
T/C [1]: 95 % of control
T/C [2]: 113 % of control
T/C [3]: 109 % of control

COc1cc(C(=O)N2CC2)cc(OC)c1OC
T/C (dose: 3.12 mg/kg/injection, schedule: Q01DX009 (ip), vehicle: water): 108 % of control
T/C (dose: 6.25 mg/kg/injection, schedule: Q01DX009 (ip), vehicle: water): 90 % of control
T/C (dose: 12.5 mg/kg/injection, schedule: Q01DX009 (ip), vehicle: water): 99 % of control
T/C [4]: 101 % of control
T/C [5]: 96 % of control

O=NN(CCCl)C(=O)Nc1c[nH]c2ccccc12
T/C (dose: 50.0 mg/kg/injection, schedule: Q01DX009 (ip), vehicle: Klucel (hydroxypropylcellulose) (HPC)): 92 % of control
T/C [1]: 107 % of control
T/C [2]: 108 % of control
T/C [3]: 117 % of control

COc1ccc(/C=C/c2c[n+]([O-])ccc2[N+](=O)[O-])cc1
T/C [6]: 105 % of control
T/C [7]: 109 % of control
T/C [8]: 119 % of control

Cc1cccc(NC(=O)c2ccccc2)n1
T/C (dose: 12.5 mg/kg/injection, schedule: Q01DX009 (ip), vehicle: saline with Tween-80): 91 % of control
T/C [9]: 91 % of control
T/C [6]: 104 % of control

C1CN1c1nc(N2CC2)nc(N2CC2)n1
T/C (dose: 0.05 mg/kg/injection, schedule: Q01DX009 (ip), vehicle: saline): 175 % of control
T/C (dose: 0.1 mg/kg/injection, schedule: Q01DX009 (ip), vehicle: saline): 115 % of control
T/C (dose: 0.13 mg/kg/injection, schedule: Q01DX010 (ip), vehicle: saline): 109 % of control
T/C (dose: 0.25 mg/kg/injection, schedule: Q01DX010 (ip), vehicle: saline): 150 % of control
T/C (dose: 0.25 mg/kg/injection, schedule: Q01DX010 (ip), vehicle: water): 190 % of control
T/C (dose: 0.4 mg/kg/injection, schedule: Q01DX009 (ip), vehicle: saline): 159 % of control
T/C (dose: 0.5 mg/kg/injection, schedule: Q01DX009 (ip), vehicle: saline): 200 % of control
T/C (dose: 0.5 mg/kg/injection, schedule: Q01DX010 (ip), vehicle: saline): 272 % of control
T/C (dose: 0.5 mg/kg/injection, schedule: Q01DX010 (ip), vehicle: water): 268 % of control
T/C (dose: 0.75 mg/kg/injection, schedule: Q01DX010 (ip), vehicle: water): 268 % of control
T/C (dose: 0.8 mg/kg/injection, schedule: Q01DX009 (ip), vehicle: saline): 86 % of control

CN(C)c1ccc(/C=C/c2ccncc2)cc1
T/C (dose: 3.13 mg/kg/injection, schedule: Q01DX009 (ip), vehicle: saline with Tween-80): 115 % of control

CCOC(=O)c1c(NC(=O)C(F)(F)F)[nH]c(SSc2[nH]c(NC(=O)C(F)(F)F)c(C(=O)OCC)c2C(=O)OCC)c1C(=O)OCC
T/C (dose: 1.0 mg/kg/injection, schedule: Q01DX009 (ip), vehicle: water): 111 % of control
T/C (dose: 2.0 mg/kg/injection, schedule: Q01DX009 (ip), vehicle: water): 90 % of control
T/C (dose: 4.0 mg/kg/injection, schedule: Q01DX009 (ip), vehicle: water): 104 % of control
T/C (dose: 8.0 mg/kg/injection, schedule: Q01DX009 (ip), vehicle: water): 104 % of control
T/C [10]: 106 % of control
T/C [11]: 117 % of control
T/C (dose: 200.0 mg/kg/injection, schedule: Q04DX003 (ip), vehicle: saline with Tween-80): 106 % of control

CCOC(=O)C1=C(Nc2ccccc2)CSC1
T/C [4]: 94 % of control
T/C [5]: 97 % of control
T/C (dose: 100.0 mg/kg/injection, schedule: Q01DX009 (ip), vehicle: water): 102 % of control
T/C (dose: 200.0 mg/kg/injection, schedule: Q01DX009 (ip), vehicle: water): 108 % of control
T/C (dose: 400.0 mg/kg/injection, schedule: Q01DX009 (ip), vehicle: water): 91 % of control

CS(=O)(=O)OCC(=O)NCC(O)CNC(=O)COS(C)(=O)=O
T/C (dose: 78.0 mg/kg/injection, schedule: Q04DX003 (ip), vehicle: saline with Tween-80): 150 % of control
T/C (dose: 177.0 mg/kg/injection, schedule: Q04DX003 (ip), vehicle: saline with Tween-80): 161 % of control
T/C (dose: 264.0 mg/kg/injection, schedule: Q04DX003 (ip), vehicle: saline with Tween-80): 231 % of control and 157 % of control
T/C (dose: 400.0 mg/kg/injection, schedule: Q04DX003 (ip), vehicle: saline with Tween-80): 209 % of control

Cc1ccc2c(ccc3c[n+]4ccccc4c(C)c32)c1
T/C (dose: 12.5 mg/kg/injection, schedule: Q04DX003 (ip), vehicle: saline with Tween-80): 113 % of control
T/C [12]: 118 % of control
T/C (dose: 33.0 mg/kg/injection, schedule: Q04DX003 (ip), vehicle: saline with Tween-80): 122 % of control

CCCCCCCCCCCC[N+]1(CCCCCCCCCCCC)CCCC(C)C1 (centres undefined)
T/C (dose: 0.37 mg/kg/injection, schedule: Q01DX009 (ip), vehicle: Klucel (hydroxypropylcellulose) (HPC)): 108 % of control

N=c1ccn2c(n1)OC1C(O)C(COS(=O)OC3C(CO)OC4C3Oc3nc(=N)ccn34)OC12 (centres undefined)
T/C [9]: 122 % of control
T/C [7]: 161 % of control
T/C [8]: 175 % of control

Cc1ccc(-n2c(=S)[nH]c3ccccc3c2=O)cc1C
T/C [1]: 100 % of control
T/C [13]: 105 % of control
T/C [2]: 86 % of control
T/C [14]: 100 % of control
T/C [3]: 91 % of control
T/C [15]: 100 % of control

CCCCCCCCCCCCC(C(=O)O)C1C=CCC1 (centres undefined)
T/C (dose: 100.0 mg/kg/injection, schedule: Q01DX001 (ip), vehicle: other): 100 % of control
T/C (dose: 200.0 mg/kg/injection, schedule: Q01DX001 (ip), vehicle: other): 100 % of control
T/C (dose: 400.0 mg/kg/injection, schedule: Q01DX001 (ip), vehicle: other): 100 % of control

CC(=O)c1ccccc1OCC(O)CN1CCN(c2ccccc2)CC1 (centres undefined)
T/C [9]: 100 % of control
T/C [12]: 113 % of control
T/C [6]: 100 % of control
T/C [10]: 104 % of control
T/C [7]: 96 % of control
T/C [11]: 109 % of control

CCCCCCCCCCCCCCCC(=O)OCc1cc(=O)c(O)co1
T/C [1]: 118 % of control
T/C [13]: 104 % of control
T/C [2]: 109 % of control
T/C [14]: 104 % of control
T/C [3]: 95 % of control
T/C [15]: 113 % of control
